According to patent US20090246292A1, “ANTIMICROBIAL FORMULATIONS COMPRISING A QUINONE AND A COPPER SALT” (priority 2006, published 2009):
Like-named read-outs stand apart in the source and are kept apart here.

Tests used:
S. aureus ATCC 29213 [1] = experiment: Synergy disc diffusion assay (SDDA), also supplemented;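 further: disc diffusion on Mueller-Hinton agar at pH 7.2, aerobic incubation at 37 °C lasting 19-20 h, two compounds assessed jointly for combined antimicrobial effect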
S. aureus ATCC 29213 [2] = experiment: Disc diffusion assay (DDA), also supplemented
Procedure: The staphylococci were cultured and maintained on Mueller-Hinton Medium (agar and broth) at pH 7.2; cultures were incubated aerobically at 37° C. for 19-20 hours.
(d) Disc Diffusion Assay (DDA)
(§6) A sterile paper disc was impregnated with a sample of the test compound in a suitable solvent and 30 minutes allowed for the solvents to evaporate (where possible). The disc was then placed on an agar plate onto which the test micro-organism had been inoculated. The plate was then incubated under the conditions described above, following which it was examined visually for signs of bacterial growth. […] The diameter of this zone of “inhibition” was measured using a ProtoCOL™ automated zone sizer (Synbiosis, Cambridge, UK).
(f) Supplemented Disc Diffusion Assays
For assays using S. aureus ATCC 29213 the supplements used were sodium chloride (100 mM), lipid (Tween™ 80 at 1% v/v) and horse serum (5% v/v).

P. acnes NCTC 737 [3] = experiment: Disc diffusion assay (DDA), also supplemented;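 further: paper disc carrying compound placed on inoculated Wilkins-Chalgren Anaerobe agar pH 6.0, with lipid or NaCl supplement where listed, anaerobic 37 °C for 72 h, inhibition zone diameter read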
Procedure: (§7) The propionibacteria were cultured and maintained on Wilkins-Chalgren Anaerobe Medium (agar and broth) at pH 6.0; all cultures were incubated anaerobically at 37° C. for 72 hours.
(d) Disc Diffusion Assay (DDA)
as §6
(f) Supplemented Disc Diffusion Assays
(§8) For assays using Propionibacterium spp. strains the supplements used in the examples below were lipid (either Tween™ 80 or triolein, both at 1% v/v) and sodium chloride (100 mM).

S. aureus ATCC 29213 [4] = experiment: Minimum bactericidal concentration (MBC) assay; assay type: cell-based, Staphylococcus aureus
Procedure: (§1) (b) Minimum Bactericidal Concentration (MBC) Assay
(§2) Following incubation they were examined visually for bacterial growth.

S. aureus ATCC 29213 [5] = experiment: Minimum inhibitory concentration (MIC) assay; assay type: cell-based, Staphylococcus aureus
Excerpt: (§3) (a) Minimum Inhibitory Concentration (MIC) Assay
(§4) The culture media were as described above.
(§5) The assays included both negative (culture medium with no micro-organisms) and positive (culture medium plus diluting solvent plus micro-organism) controls.

P. acnes NCTC 737 [6] = experiment: Minimum inhibitory concentration (MIC) assay; assay type: cell-based, Propionibacterium acnes
Excerpt: as §3, §4, §5

P. acnes NCTC 737 [7] = experiment: Minimum bactericidal concentration (MBC) assay; assay type: cell-based, Propionibacterium acnes
Procedure: as §1, §2

P. acnes NCTC 737 [8] = experiment: Synergy disc diffusion assay (SDDA), also supplemented
Procedure: as §7
(e) Synergy Disc Diffusion Assay (SDDA)
This is a variation on the DDA method, in which two compounds are tested together for their combined antimicrobial activity.
Two test compounds A and B were placed on a single paper disc and the above described DDA procedure repeated.
(f) Supplemented Disc Diffusion Assays
as §8

[9] = copper salt + TBHQ on one disc, 200 μg of each (silicate 62 μg), salt and serum supplements
[10] = copper salt + TBHQ on one disc, 200 μg of each (silicate 62 μg), unsupplemented
[11] = copper salt + TBHQ vs larger zone of either compound alone, unsupplemented
[12] = copper salt + TBHQ, salt and serum supplements
[13] = copper salt + TBHQ, unsupplemented
[14] = copper salt alone, 200 μg per disc (silicate 62 μg), Tween 80 at 1% v/v
[15] = copper salt alone, 200 μg per disc (silicate 62 μg), salt and horse serum (5% v/v)
[16] = copper salt alone, 200 μg per disc (silicate 62 μg), sodium chloride (100 mM)
[17] = copper salt alone, 200 μg per disc (silicate 62 μg), 1% (v/v) Tween 80
[18] = copper salt alone, 200 μg per disc (silicate 62 μg), salt and 1% (v/v) Tween 80
[19] = copper salt alone, S. aureus ATCC 29213
[20] = copper salt alone, P. acnes NCTC 737
[21] = copper salt + TBHQ on one disc, 200 μg of each (silicate 62 μg), salt and lipid (1% (v/v) Tween 80)
[22] = copper salt + TBHQ, salt and lipid (1% (v/v) Tween 80)

Structure (SMILES): [Cu+].[I-] [Copper (I) iodide]
- SS SDDA with TBHQ (S. aureus ATCC 29213 [1]; [9]): 45.26 mm
- SDDA with TBHQ (S. aureus ATCC 29213 [1]; [10]): 52.74 mm
- SDDA increase (S. aureus ATCC 29213 [1]; [11]): 12.32 mm
- SS SDDA area increase (S. aureus ATCC 29213 [1]; [12]): 7.37%
- SS SDDA increase (S. aureus ATCC 29213 [1]; [12]): 1.58 mm
- SDDA area increase (S. aureus ATCC 29213 [1]; [13]): 70.25%
- DDA + lipid (S. aureus ATCC 29213 [2]; [14]): 0 mm
- DDA + salt & serum (S. aureus ATCC 29213 [2]; [15]): 0 mm
- DDA + salt (S. aureus ATCC 29213 [2]; [16]): 0 mm
- DDA + lipid (P. acnes NCTC 737 [3]; [17]): 34.64 mm
- DDA + salt & lipid (P. acnes NCTC 737 [3]; [18]): 46.20 mm
- DDA + salt (P. acnes NCTC 737 [3]; [16]): 43.92 mm
- MBC (S. aureus ATCC 29213 [4]; [19]): >250 µg/mL
- MIC (S. aureus ATCC 29213 [5]; [19]): >250 µg/mL
- MIC (P. acnes NCTC 737 [6]; [20]): 7.8 µg/mL
- MIC/MBC ratio (P. acnes NCTC 737 [6]; [20]): 0.25
- MBC (P. acnes NCTC 737 [7]; [20]): 31.25 µg/mL
- SL SDDA with TBHQ (P. acnes NCTC 737 [8]; [21]): 64.77 mm
- SDDA with TBHQ (P. acnes NCTC 737 [8]; [10]): 70.08 mm
- SDDA increase (P. acnes NCTC 737 [8]; [11]): 21.48 mm
- SL SDDA area increase (P. acnes NCTC 737 [8]; [22]): 96.51%
- SL SDDA increase (P. acnes NCTC 737 [8]; [22]): 18.56 mm
- SDDA area increase (P. acnes NCTC 737 [8]; [13]): 107.92%

Structure (SMILES): CC(=O)[O-].CC(=O)[O-].[Cu+2] [Copper (II) acetate]
- SDDA area increase (S. aureus ATCC 29213 [1]): 1.59%
- SDDA increase (S. aureus ATCC 29213 [1]): 0.32 mm
- SDDA with TBHQ (S. aureus ATCC 29213 [1]): 40.74 mm
- SS SDDA area increase (S. aureus ATCC 29213 [1]): −57.34%
- SS SDDA increase (S. aureus ATCC 29213 [1]): −15.15 mm
- SS SDDA with TBHQ (S. aureus ATCC 29213 [1]): 28.53 mm
- DDA (S. aureus ATCC 29213 [2]): 0 mm
- DDA + lipid (S. aureus ATCC 29213 [2]): 0 mm
- DDA + salt (S. aureus ATCC 29213 [2]): 0 mm
- DDA + salt & serum (S. aureus ATCC 29213 [2]): 0 mm
- DDA (P. acnes NCTC 737 [3]): 53.61 mm
- DDA + lipid (P. acnes NCTC 737 [3]): 42.06 mm
- DDA + salt (P. acnes NCTC 737 [3]): 48.25 mm
- DDA + salt & lipid (P. acnes NCTC 737 [3]): 49.54 mm
- MBC (S. aureus ATCC 29213 [4]): >250 µg/mL
- MIC (S. aureus ATCC 29213 [5]): >250 µg/mL
- MIC (P. acnes NCTC 737 [6]): 7.8 µg/mL
- MIC/MBC ratio (P. acnes NCTC 737 [6]): 0.25
- MBC (P. acnes NCTC 737 [7]): 31.25 µg/mL
- SDDA area increase (P. acnes NCTC 737 [8]): 56%
- SDDA increase (P. acnes NCTC 737 [8]): 13.35 mm
- SDDA with TBHQ (P. acnes NCTC 737 [8]): 66.96 mm
- SL SDDA area increase (P. acnes NCTC 737 [8]): 64.92%
- SL SDDA increase (P. acnes NCTC 737 [8]): 14.08 mm
- SL SDDA with TBHQ (P. acnes NCTC 737 [8]): 63.62 mm

Structure (SMILES): CC(=O)Oc1ccccc1C(=O)[O-].CC(=O)Oc1ccccc1C(=O)[O-].CC(=O)Oc1ccccc1C(=O)[O-].CC(=O)Oc1ccccc1C(=O)[O-].[Cu+2].[Cu+2] [Copper (II) aspirinate]
- SS SDDA with TBHQ (S. aureus ATCC 29213 [1]; [9]): 56.95 mm
- SDDA with TBHQ (S. aureus ATCC 29213 [1]; [10]): 69.05 mm
- SDDA increase (S. aureus ATCC 29213 [1]; [11]): 28.63 mm
- SS SDDA area increase (S. aureus ATCC 29213 [1]; [12]): 69.99%
- SS SDDA increase (S. aureus ATCC 29213 [1]; [12]): 13.27 mm
- SDDA area increase (S. aureus ATCC 29213 [1]; [13]): 191.83%
- DDA (S. aureus ATCC 29213 [2]): 0 mm
- DDA + lipid (S. aureus ATCC 29213 [2]; [14]): 0 mm
- DDA + salt & serum (S. aureus ATCC 29213 [2]; [15]): 0 mm
- DDA + salt (S. aureus ATCC 29213 [2]; [16]): 0 mm
- DDA (P. acnes NCTC 737 [3]): 44.32 mm
- DDA + lipid (P. acnes NCTC 737 [3]; [17]): 36.19 mm
- DDA + salt & lipid (P. acnes NCTC 737 [3]; [18]): 47.45 mm
- DDA + salt (P. acnes NCTC 737 [3]; [16]): 40.21 mm
- MBC (S. aureus ATCC 29213 [4]; [19]): >250 µg/mL
- MIC (S. aureus ATCC 29213 [5]; [19]): 125 µg/mL
- MIC/MBC ratio (S. aureus ATCC 29213 [5]; [19]): <0.5
- MIC (P. acnes NCTC 737 [6]; [20]): 15.6 µg/mL
- MBC (P. acnes NCTC 737 [7]; [20]): 62.5 µg/mL
- SL SDDA with TBHQ (P. acnes NCTC 737 [8]; [21]): 58.93 mm
- SDDA with TBHQ (P. acnes NCTC 737 [8]; [10]): 60.80 mm
- SDDA increase (P. acnes NCTC 737 [8]; [11]): 16.48 mm
- SL SDDA area increase (P. acnes NCTC 737 [8]; [22]): 54.20%
- SL SDDA increase (P. acnes NCTC 737 [8]; [22]): 11.47 mm
- SDDA area increase (P. acnes NCTC 737 [8]; [13]): 88.19%
